Data: US12071404B2, “Aza (indole)-, benzothiophene-, and benzofuran-3-sulfonamides” (UCB Pharma GmbH, priority 2016, dated 2024)

Target: GPR17 (Homo sapiens, UniProt Q13304)
Experiment: Calcium mobilization functional assay (GPR17 Ca2+ assay)
Type: cell-based
Parameters: host or cells: Flp-In T-REx CHO
Details: CHO hGPR17 cells, inhibition of 50 nM MDL29,951, Calcium 5 dye, FLIPR; read-out: Ca2+ assay pIC50 (converted)
Description: Flp-In T-REx CHO cells stably expressing human GPR17 receptor (CHO hGPR17) from Evi Kostenis' lab (Bonn University, Germany) were cultured at 37° C. in a humidified atmosphere of 5% CO2. Cells were grown in DMEM with Nutrient Mixture F-12 supplemented with hygromycin B (500 μg/mL) and blasticidin (30 μg/mL). Expression from the Flp-In locus was induced by treatment with doxycycline (1 μg/mL) for 16-20 h prior assays.
GPR17 is a G-protein coupled receptor. GPR17 activation triggers Gq-type G-protein signaling resulting in endoplasmic reticulum calcium (Ca^2+) stores release in cytosol which can be measured using Calcium 5 dye, a fluorescent indicator dye of cytosolic Ca^2+ levels. All Examples were tested in GPR17 Ca^2+ assay to determine (screen) their GPR17 modulating activity.
CHO hGPR17 were defrosted and seeded at a density of 20,000 cells per well into black 384-well plates with clear bottom. Cells were incubated overnight at 37° C. in a humidified atmosphere of 5% CO2. Sixteen to twenty hours after seeding, CHO hGPR17 were loaded for 60 min with Calcium 5 dye, a cytosolic Ca^2+ indicator fluorescent dye, according to manufacturer's instructions. Fluorescent signal relative to cytosolic Ca^2+ concentration was recorded over time at room temperature in FLIPR Tetra reader. […] Then, 50 nM MDL29,951, a GPR17 agonist, was added to the cells. Inhibitory effects of varying concentrations test compounds were measured and resulting plC50s were determined. […] Analysis and curve fitting were performed in ActivityBase XE using XLfit 4-parameter logistic equation y=A+((B−A)/(1+((C/x)^D))) where A, B, C and D stand for minimum y, maximum y, IC50 and slope, respectively.
The activities of the Example compounds tested are depicted in the table in Section B2B below. The activity ranges A, B and C refer to plC50 values in the Ca^2+ assay as follows: “A”: plC50<7.5, “B”: plC50 7.5<x≤ 8.5, “C”: plC50>8.5

Chain of GPR17 (Q13304 whole entry): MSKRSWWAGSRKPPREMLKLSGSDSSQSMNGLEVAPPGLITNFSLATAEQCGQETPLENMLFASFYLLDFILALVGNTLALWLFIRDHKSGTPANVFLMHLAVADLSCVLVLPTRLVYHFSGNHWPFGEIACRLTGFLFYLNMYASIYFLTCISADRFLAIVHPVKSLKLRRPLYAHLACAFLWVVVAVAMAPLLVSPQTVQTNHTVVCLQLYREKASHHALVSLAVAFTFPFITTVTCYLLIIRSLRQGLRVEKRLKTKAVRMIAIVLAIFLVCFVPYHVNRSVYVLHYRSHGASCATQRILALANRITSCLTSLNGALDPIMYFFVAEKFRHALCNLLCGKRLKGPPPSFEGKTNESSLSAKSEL

Row | IC50 | SMILES
1 | > 31.6 nM | O=S(=O)(Nc1cccc2nsnc12)c1c[nH]c2cc(OCc3ccccc3)ccc12 [Compound I-156, N-(2,1,3-benzothiadiazol-4-yl)-6-(benzyloxy)-1H-indole-3-sulfonamide]
2 | > 31.6 nM | COc1ccc(-c2ccc3c(S(=O)(=O)Nc4ccc(C#N)cc4F)c[nH]c3c2)cc1 [Compound I-232, N-(4-cyano-2-fluorophenyl)-6-(4-methoxyphenyl)-1H-indole-3-sulfonamide]
3 | 3.16 to 31.6 nM | N#Cc1ccc(NS(=O)(=O)c2c[nH]c3cc(F)cc(F)c23)c(F)c1 [Compound I-168, N-(4-cyano-2-fluorophenyl)-4,6-difluoro-1H-indole-3-sulfonamide]
4 | > 31.6 nM | N#Cc1cc(F)c(NS(=O)(=O)c2c[nH]c3cc(F)cc(F)c23)cc1F [Compound I-164, N-(4-cyano-2,5-difluorophenyl)-4,6-difluoro-1H-indole-3-sulfonamide]
5 | > 31.6 nM | O=S(=O)(Nc1ccc(F)c2nonc12)c1c[nH]c2cc(Cl)ccc12 [Compound I-197, 6-chloro-N-(7-fluoro-2,1,3-benzoxadiazol-4-yl)-1H-indole-3-sulfonamide]
6 | > 31.6 nM | N#Cc1ccc(NS(=O)(=O)c2c[nH]c3cc(-c4ccncc4)ccc23)c(F)c1 [Compound I-231, N-(4-cyano-2-fluorophenyl)-6-(pyridin-4-yl)-1H-indole-3-sulfonamide]
7 | > 31.6 nM | O=S(=O)(Nc1cccc2nsnc12)c1c[nH]c2cc(F)cc(F)c12 [Compound I-166, N-(2,1,3-benzothiadiazol-4-yl)-4,6-difluoro-1H-indole-3-sulfonamide]
8 | 3.16 to 31.6 nM | N#Cc1cc(F)c(NS(=O)(=O)c2c[nH]c3nc(Cl)ccc23)cc1F [Compound I-176, 6-chloro-N-(4-cyano-2,5-difluorophenyl)-1H-pyrrolo[2,3-b]pyridine-3-sulfonamide]
9 | > 31.6 nM | COc1c(Cl)ccc2c(S(=O)(=O)Nc3cc(F)c(F)cc3F)c[nH]c12 [Compound I-196, 6-chloro-7-methoxy-N-(2,4,5-trifluorophenyl)-1H-indole-3-sulfonamide]
10 | < 3.16 nM | N#Cc1ccc(NS(=O)(=O)c2c[nH]c3cc(C(F)(F)F)ccc23)cc1 [Compound I-190, N-(4-cyanophenyl)-6-(trifluoromethyl)-1H-indole-3-sulfonamide]
11 | > 31.6 nM | N#Cc1ccc(NS(=O)(=O)c2c[nH]c3cc(OCC4CCCO4)ccc23)c(F)c1 (centres unmarked) [Compound I-222, N-(4-cyano-2-fluorophenyl)-6-(tetrahydrofuran-2-ylmethoxy)-1H-indole-3-sulfonamide]
12 | > 31.6 nM | O=S(=O)(Nc1ccc(S(F)(F)(F)(F)F)cc1)c1c[nH]c2cc(Cl)ccc12 [Compound I-217, 6-chloro-N-[4-(pentafluoro-lambda6-sulfanyl)phenyl]-1H-indole-3-sulfonamide]

More lines, now with the values behind:

Row | SMILES | IC50
13 | N#Cc1ccc(NS(=O)(=O)c2c[nH]c3ncc(Cl)cc23)cc1 [Compound I-77, 5-chloro-N-(4-cyanophenyl)-1H-pyrrolo[2,3-b]pyridine-3-sulfonamide] | > 31.6 nM
14 | O=S(=O)(Nc1ccc(I)cc1F)c1c[nH]c2ncc(I)cc12 [Compound I-101, N-(2-fluoro-4-iodophenyl)-5-iodo-1H-pyrrolo[2,3-b]pyridine-3-sulfonamide] | > 31.6 nM
15 | Cc1ccc2c(S(=O)(=O)Nc3cccc4c3OCO4)c[nH]c2c1 [Compound I-29, N-(1,3-benzodioxol-4-yl)-6-methyl-1H-indole-3-sulfonamide] | > 31.6 nM
16 | O=S(=O)(Nc1cccc(F)c1Cl)c1c[nH]c2cc(Cl)ccc12 [Compound I-23, 6-chloro-N-(2-chloro-3-fluorophenyl)-1H-indole-3-sulfonamide] | > 31.6 nM
17 | O=S(=O)(Nc1ccc(Cl)cc1F)c1c[nH]c2cc(F)ccc12 [Compound I-51, N-(4-chloro-2-fluorophenyl)-6-fluoro-1H-indole-3-sulfonamide] | > 31.6 nM
18 | Cc1ccc2c(S(=O)(=O)Nc3cc(F)ccc3F)c[nH]c2c1 [Compound I-32, N-(2,5-difluorophenyl)-6-methyl-1H-indole-3-sulfonamide] | > 31.6 nM
19 | N#Cc1ccc2c(S(=O)(=O)Nc3cc(F)c(F)cc3F)c[nH]c2c1 [Compound I-75, 6-cyano-N-(2,4,5-trifluorophenyl)-1H-indole-3-sulfonamide] | > 31.6 nM
20 | O=S(=O)(Nc1ccccc1F)c1c[nH]c2cc(Cl)ccc12 [Compound I-11, 6-chloro-N-(2-fluorophenyl)-1H-indole-3-sulfonamide] | > 31.6 nM
21 | O=S(=O)(Nc1ccc(F)cn1)c1c[nH]c2cc(Cl)ccc12 [Compound I-62, 6-chloro-N-(5-fluoropyriidn-2-yl)-1H-indole-3-sulfonamide] | > 31.6 nM
22 | N#Cc1ccc(NS(=O)(=O)c2c[nH]c3c4c(ccc23)CCC4)cc1F [Compound I-149, N-(4-cyano-3-fluorophenyl)-1,6,7,8-tetrahydrocyclopenta[g]indole-3-sulfonamide] | 3.16 to 31.6 nM
23 | O=S(=O)(Nc1cccc(Cl)n1)c1c[nH]c2cc(Cl)ccc12 [Compound I-57, 6-chloro-N-(6-chloropyridin-2-yl)-1H-indole-3-sulfonamide] | > 31.6 nM
24 | N#Cc1ccc(NS(=O)(=O)c2c[nH]c3ccc(Cl)cc23)cc1 [Compound I-17, 5-chloro-N-(4-cyanophenyl)-1H-indole-3-sulfonamide] | > 31.6 nM
25 | O=S(=O)(Nc1cc(F)c(F)cc1F)c1c[nH]c2cc3c(cc12)OCO3 [Compound I-46, N-(2,4,5-trifluorophenyl)-5H-[1,3]dioxolo[4,5-f]indole-7-sulfonamide] | > 31.6 nM
26 | COc1ccc2c(S(=O)(=O)Nc3cc(F)c(F)cc3F)c[nH]c2c1 [Compound I-2, 6-methoxy-N-(2,4,5-trifluorophenyl)-1H-indole-3-sulfonamide] | > 31.6 nM
27 | O=S(=O)(Nc1cccc2nsnc12)c1c[nH]c2c3c(ccc12)CCC3 [Compound I-74] | > 31.6 nM
28 | N#Cc1ccc(NS(=O)(=O)c2c[nH]c3ccc(Br)cc23)cc1 [Compound I-13, 5-bromo-N-(4-cyanophenyl)-1H-indole-3-sulfonamide] | > 31.6 nM
29 | COc1ccc2c(S(=O)(=O)Nc3cccc4c3OC(F)(F)O4)c[nH]c2c1 [Compound I-72, N-(2,2-difluoro-1,3-benzodioxol-4-yl)-6-methoxy-1H-indole-3-sulfonamide] | > 31.6 nM
30 | C#Cc1ccc(NS(=O)(=O)c2c[nH]c3cc(S(C)(=O)=O)ccc23)cc1 [Compound I-34, N-(4-ethynylphenyl)-6-(methylsulfonyl)-1H-indole-3-sulfonamide] | > 31.6 nM
31 | O=S(=O)(Nc1c(F)ccc2nsnc12)c1c[nH]c2cc(Cl)ccc12 [Compound I-131, 6-chloro-N-(5-fluoro-2,1,3-benzothiadiazol-4-yl)-1H-indole-3-sulfonamide] | > 31.6 nM
32 | O=S(=O)(Nc1ccc(Cl)cc1F)c1c[nH]c2c1ccc1ccccc12 [Compound I-45, N-(4-chloro-2-fluorophenyl)-1H-benzo[g]indole-3-sulfonamide] | > 31.6 nM
33 | O=S(=O)(Nc1ccc(I)cc1F)c1c[nH]c2cc(C(F)(F)F)ccc12 [Compound I-42, N-(2-fluoro-4-iodophenyl)-6-(trifluoromethyl)-1H-indole-3-sulfonamide] | > 31.6 nM
34 | O=S(=O)(Nc1ccc(Cl)cc1F)c1c[nH]c2cc(C(F)(F)F)ccc12 [Compound I-53, N-(4-chloro-2-fluorophenyl)-6-(trifluoromethyl)-1H-indole-3-sulfonamide] | > 31.6 nM
35 | COc1cccc(NS(=O)(=O)c2c[nH]c3cc(Cl)ccc23)n1 [Compound I-58, 6-chloro-N-(6-methoxypyridin-2-yl)-1H-indole-3-sulfonamide] | > 31.6 nM
36 | O=S(=O)(Nc1cc(F)ccc1Br)c1c[nH]c2cc(Cl)ccc12 [Compound I-38, N-(2-bromo-5-fluorophenyl)-6-chloro-1H-indole-3-sulfonamide] | > 31.6 nM
37 | N#Cc1ccc(NS(=O)(=O)c2c[nH]c3ccc(I)cc23)cc1 [Compound I-15, N-(4-cyanophenyl)-5-iodo-1H-indole-3-sulfonamide] | > 31.6 nM
38 | CS(=O)(=O)c1ccc2c(S(=O)(=O)Nc3ccc4c(c3)OC(F)(F)O4)c[nH]c2c1 [Compound I-36, N-(2,2-difluoro-1,3-benzodioxol-5-yl)-6-(methylsulfonyl)-1H-indole-3-sulfonamide] | > 31.6 nM
